# Like-named read-outs stand apart in the source and are kept apart here.
# Experiments:
# [1] = target: T1, FLT3 (Homo sapiens, UniProt P36888); test: FLT3 enzymatic assay; type: biochemical; conditions: 1 mM ATP
# T1 sequence (P36888 27-993): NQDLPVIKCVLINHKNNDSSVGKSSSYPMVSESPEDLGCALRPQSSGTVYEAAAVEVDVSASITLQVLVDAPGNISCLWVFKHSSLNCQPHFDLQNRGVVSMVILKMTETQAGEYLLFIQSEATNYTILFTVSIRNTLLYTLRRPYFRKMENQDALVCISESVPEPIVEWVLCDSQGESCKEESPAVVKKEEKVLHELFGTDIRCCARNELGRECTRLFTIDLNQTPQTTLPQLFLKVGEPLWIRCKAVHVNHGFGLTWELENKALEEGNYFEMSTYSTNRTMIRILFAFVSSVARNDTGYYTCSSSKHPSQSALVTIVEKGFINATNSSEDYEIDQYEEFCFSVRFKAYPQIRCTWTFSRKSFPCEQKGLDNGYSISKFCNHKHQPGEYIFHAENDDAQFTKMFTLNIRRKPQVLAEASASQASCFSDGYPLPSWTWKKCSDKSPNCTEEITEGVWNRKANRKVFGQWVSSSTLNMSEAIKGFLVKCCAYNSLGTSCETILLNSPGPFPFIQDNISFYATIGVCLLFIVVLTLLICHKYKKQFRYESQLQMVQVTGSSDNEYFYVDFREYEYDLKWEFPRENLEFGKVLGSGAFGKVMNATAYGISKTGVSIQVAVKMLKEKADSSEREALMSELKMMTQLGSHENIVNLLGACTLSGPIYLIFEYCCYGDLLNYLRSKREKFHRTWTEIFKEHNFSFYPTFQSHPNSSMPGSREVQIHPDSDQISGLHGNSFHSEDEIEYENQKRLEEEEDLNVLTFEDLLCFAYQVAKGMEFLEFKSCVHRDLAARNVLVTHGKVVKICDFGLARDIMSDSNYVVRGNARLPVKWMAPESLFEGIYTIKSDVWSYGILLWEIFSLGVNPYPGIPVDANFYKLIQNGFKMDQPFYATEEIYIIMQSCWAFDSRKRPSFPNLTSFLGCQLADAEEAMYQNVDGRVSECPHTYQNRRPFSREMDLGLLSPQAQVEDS
# Method in brief: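 Kinase reaction at room temperature in HEPES 50 mM pH 7.0 with 10 mM MgCl2, 1 mM DTT: 0.011 nM FLT3, 1 mM ATP, 500 nM biotinylated TK substrate, 0.5% DMSO. After 60 min, HTRF read as 665/620 nm ratio; IC50 from fit of percent control activity versus log concentration.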
# [2] = target: T2, catalytic domain (JH1, amino acids 826-1132) of human JAK2 (Homo sapiens, UniProt O60674); test: JAK2 LanthaScreen JH1 binding assay; conditions: read-out: JH1 Bind IC50
# T2 construct: catalytic domain (JH1, amino acids 826-1132) of human JAK2; FLAG (N); biotin (biotinylated); purchased Carna Biosciences 08-445-20N; host or cells: baculovirus expression system
# Method: Example A. JAK2 LanthaScreen […] Binding Assay
# JAK2 JH1 binding assay utilizes catalytic domain (JH1, amino acids 826-1132) of human JAK2 expressed as N-terminal FLAG-tagged, biotinylated protein in a baculovirus expression system (Carna Biosciences, Product #08-445-20N). The assay was conducted in black 384-well polystyrene plates in a final reaction volume of 20 μL. JAK2 JH1 (1.5 nM) was incubated with compounds (100 nL serially diluted in DMSO) in the presence of 50 nM fluorescent JAK2-JH1 tracer and 0.5 nM Streptavidin-Tb cryptate (Cisbio Part #610SATLB) in assay buffer (50 mM Tris, pH=7.5, 10 mM MgCl2, 0.01% Brij-35, 0.1% BSA, 1 mM EGTA, 5% Glycerol and 5 mM DTT). Non-specific binding was accessed in the presence of 2 mM ATP. After incubation for 2 hours at 25° C., LanthaScreen signals were read on a PHERAstar FS plate reader (BMG LABTECH). Data was analyzed with IDBS XLfit and GraphPad Prism 5.0 software using a four parameter dose response curve to determine IC50 for each compound.
# [3] = target: T3, pseudo-kinase domain (JH2) of human V617F mutant JAK2 (Homo sapiens, UniProt O60674, F794H/V617F/W659A/W777A); test: JAK2 LanthaScreen JH2-V617F binding assay; conditions: read-out: JH2 V617F Bind IC50
# T3 construct: pseudo-kinase domain (JH2, amino-acids 536-812 with 3 surface mutations W659A, W777A, F794H); His (C); purchased BPS Bioscience 79498; host or cells: baculovirus expression system
# Method: Example B. JAK2 LanthaScreen JH2-V617F Binding Assay
# JAK2 JH2-V617F binding assay utilizes pseudo-kinase domain (JH2, amino-acids 536-812 with 3 surface mutations W659A, W777A, F794H) of human V617F mutant JAK2 expressed as C-terminal His-Avi-tagged, biotinylated protein in a baculovirus expression system (BPS Bioscience, Catalog #79498). The assay was conducted in black 384-well polystyrene plates in a final reaction volume of 20 μL. JAK2 JH2-V617F (0.26 nM) was incubated with compounds (100 nL serially diluted in DMSO) in the presence of 50 nM Fluorescent JAK2-JH2 Tracer (MedChem Express Catalog #HY-102055) and 0.25 nM Streptavidin-Tb cryptate (Cisbio Part #610SATLB) in assay buffer (50 mM Tris, pH=7.5, 10 mM MgCl2, 0.01% Brij-35, 0.1% BSA, 1 mM EGTA, 5% Glycerol and 5 mM DTT). Non-specific binding was accessed in the presence of 2 mM ATP. After incubation for 1 hour at 25° C., LanthaScreen signals were read on a PHERAstar FS plate reader (BMG LABTECH). Data was analyzed with IDBS XLfit and GraphPad Prism 5.0 software using a four parameter dose response curve to determine IC50 for each compound.
# T3 sequence (O60674 536-812 V617F/W659A/W777A/F794H): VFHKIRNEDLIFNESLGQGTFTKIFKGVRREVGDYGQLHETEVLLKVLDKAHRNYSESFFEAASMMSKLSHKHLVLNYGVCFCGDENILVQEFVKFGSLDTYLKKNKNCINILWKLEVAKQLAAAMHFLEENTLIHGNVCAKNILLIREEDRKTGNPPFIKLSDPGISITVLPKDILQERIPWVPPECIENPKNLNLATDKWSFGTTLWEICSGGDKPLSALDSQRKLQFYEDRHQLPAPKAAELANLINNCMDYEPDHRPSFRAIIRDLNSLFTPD
# T2 sequence (O60674 826-1132): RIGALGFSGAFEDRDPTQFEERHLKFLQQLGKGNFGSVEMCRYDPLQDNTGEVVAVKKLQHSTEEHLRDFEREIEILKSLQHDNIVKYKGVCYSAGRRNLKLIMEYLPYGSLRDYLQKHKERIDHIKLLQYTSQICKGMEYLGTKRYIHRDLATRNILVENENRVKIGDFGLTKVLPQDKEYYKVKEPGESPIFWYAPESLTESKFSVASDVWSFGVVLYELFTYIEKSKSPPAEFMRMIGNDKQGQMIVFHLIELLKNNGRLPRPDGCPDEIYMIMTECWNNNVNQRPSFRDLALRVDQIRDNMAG
Structure (SMILES),IC50 [1] [nM],IC50 ([2]; Table A) [nM],IC50 ([2]; Table C) [nM],IC50 ([3]; Table A) [nM],IC50 ([3]; Table C) [nM]
"COc1nn(C)cc1-c1[nH]c2ncc3c(c2c1-c1ccc2c(cnn2C)c1)n([C@H]1CC[C@@H](CC#N)CC1)c(=O)n3C [E, reference compound]",250 to 1250,,,,
"COC(=O)N[C@@H]1CC[C@@H](n2c(=O)n(C)c3cnc4[nH]c(-c5cn(C)nc5OC)c(-c5ccc(F)cc5)c4c32)C1 [Example 1, Methyl ((1R,3R)-3-(8-(4-fluorophenyl)-7-(3-methoxy-1-methyl-1H-pyrazol-4-yl)-3-methyl-2-oxo-3,6-dihydroimidazo[4,5-d]pyrrolo[2,3-b]pyridin-1(2H)-yl)cyclopentyl)carbamate]",> 2500,> 1000,> 1000,≤ 10,≤ 10
"COC(=O)N[C@@H]1CC[C@@H](n2c(=O)n(C)c3cnc4[nH]c(-c5cn(C)nc5OC)c(-c5ccccc5)c4c32)C1 [Example 2, Methyl ((1R,3R)-3-(7-(3-methoxy-1-methyl-1H-pyrazol-4-yl)-3-methyl-2-oxo-8-phenyl-3,6-dihydroimidazo[4,5-d]pyrrolo[2,3-b]pyridin-1(2H)-yl)cyclopentyl)carbamate]",> 2500,> 1000,> 1000,≤ 10,≤ 10
"COC(=O)N[C@@H]1CC[C@@H](n2c(=O)n(C)c3cnc4[nH]c(-c5cn(C)nc5OC)c(-c5cccc(F)c5)c4c32)C1 [Example 3, Methyl ((1R,3R)-3-(8-(3-fluorophenyl)-7-(3-methoxy-1-methyl-1H-pyrazol-4-yl)-3-methyl-2-oxo-3,6-dihydroimidazo[4,5-d]pyrrolo[2,3-b]pyridin-1(2H)-yl)cyclopentyl)carbamate]",> 2500,> 1000,> 1000,≤ 10,≤ 10
"COC(=O)N[C@@H]1CC[C@@H](n2c(=O)n(C)c3cnc4[nH]c(-c5cn(C)nc5OC)c(-c5ccc(OC)c(F)c5)c4c32)C1 [Example 4, Methyl ((1R,3R)-3-(8-(3-fluoro-4-methoxyphenyl)-7-(3-methoxy-1-methyl-1H-pyrazol-4-yl)-3-methyl-2-oxo-3,6-dihydroimidazo[4,5-d]pyrrolo[2,3-b]pyridin-1(2H)-yl)cyclopentyl)carbamate]",> 2500,> 1000,> 1000,≤ 10,≤ 10
"[2H]C([2H])([2H])n1ncc2cc(-c3c(-c4cn(C)nc4OC)[nH]c4ncc5c(c34)n([C@@H]3CC[C@@H](NC(=O)OC)C3)c(=O)n5C)ccc21 [Example 5, Methyl ((1R,3R)-3-(7-(3-methoxy-1-methyl-1H-pyrazol-4-yl)-3-methyl-8-(1-(methyl-d3)-1H-indazol-5-yl)-2-oxo-3,6-dihydroimidazo[4,5-d]pyrrolo[2,3-b]pyridin-1(2H)-yl)cyclopentyl)carbamate]",1250 to 2500,> 1000,> 1000,≤ 10,≤ 10
"[2H]C([2H])([2H])n1cc(-c2[nH]c3ncc4c(c3c2-c2ccc3c(cnn3C([2H])([2H])[2H])c2)n([C@@H]2CC[C@@H](NC(=O)OC)C2)c(=O)n4C([2H])([2H])[2H])c(F)n1 [Example 6, Methyl ((1R,3R)-3-(7-(3-fluoro-1-(methyl-d3)-1H-pyrazol-4-yl)-3-(methyl-d3)-8-(1-(methyl-d3)-1H-indazol-5-yl)-2-oxo-3,6-dihydroimidazo[4,5-d]pyrrolo[2,3-b]pyridin-1(2H)-yl)cyclopentyl)carbamate]",1250 to 2500,> 1000,> 1000,≤ 10,≤ 10
"[2H]C([2H])([2H])n1cc(-c2[nH]c3ncc4c(c3c2-c2ccc(F)cc2)n([C@@H]2CC[C@@H](NC(=O)OC)C2)c(=O)n4C([2H])([2H])[2H])c(F)n1 [Example 7, Methyl ((1R,3R)-3-(7-(3-fluoro-1-(methyl-d3)-1H-pyrazol-4-yl)-8-(4-fluorophenyl)-3-(methyl-d3)-2-oxo-3,6-dihydroimidazo[4,5-d]pyrrolo[2,3-b]pyridin-1(2H)-yl)cyclopentyl)carbamate]",> 2500,> 1000,> 1000,≤ 10,≤ 10

# — US12084430B2, “Tricyclic urea compounds as JAK2 V617F inhibitors” (Incyte Corporation, priority 2022, dated 2024)
